Assays:
ICSBP = ICSBP expression (Western blot); assay type: cell-based; conditions: of the transcription factors analyzed
Procedure: (§1) The 10% SDS Polyacrylamide gels (Inveitrogen) were transferred to Pure Nitrocellulose membrane (BioRed, Hercules, Calif.). The membranes were blocked with 5% milk in TBST buffer and incubated with anti-c-Rel, anti-p65, anti-p50, anti-ICSBP or anti-PU-1 antibody (all the antibodies were purchased from Santa Cruz) at a dilution of 1:500 for 1 h at room temperature or overnight at 4C. The membranes were washed and incubated with Horseradish Peroxidase-conjugated anti-rabbit IgG or anti-mouse IgG (Amersham, England) at a dilution of 1:2000 at room temperature for 1 h.
Of the transcription factors that have been analyzed, two factors, ICSBP and c-Rel, seem to be affected by Compound 4/Compound 50 treatment. ICSBP binds indirectly to the Ets-2 site. The primary NF-κB trans-activator for IL-12 is the c-Rel/p50 heterodimer. Other dimers (p65/p50 and p50/p50) either lack activity or have inhibitory functions. Thus, c-Rel plays a role in IL-12 transcription as a result of both activation through NF-κB and its interaction with ICSBP. […] The membranes were blocked with 5% milk in TBST buffer and then incubated with anti-c-Rel, anti-p65, anti-p50, anti-ICSBP or anti-PU-1 antibody (all the antibodies were purchased from Santa Cruz) at a dilution of 1:500 for 1 h at room temperature or overnight at 4° C. The membranes were washed and incubated with Horseradish Peroxidase-conjugated anti-rabbit IgG or anti-mouse IgG (Amersham, England) at a dilution of 1:2000 at room temperature for 1 h.
ICSBP, whose expression was reduced by Compound 50, was over-expressed using co-transfection with the IL-12 promoter-Luc report system. The over-expression construct of ICSBP was generated by PCR from cDNA of human PBMC using primers as follow: ICSBP-exp-F: 5′-[…]-3′ (SEQ ID NO:1) and ICSBP-exp-R: 5′-[…]-3′ (SEQ ID NO:2), the resulting PCR products was ligated to pCI vector (Promega).

c-Rel = target: T1, c-Rel (Homo sapiens, UniProt Q04864); assay: Western blot of THP-1 nuclear extracts: c-Rel; assay type: cell-based; conditions: of the transcription factors analyzed
T1 construct: a western blot assay of THP1 nuclear c-Rel, p50 and p65 proteins was carried out; endogenous in cells; host or cells: THP-1; Jurkat
T1 sequence (Q04864 1-619): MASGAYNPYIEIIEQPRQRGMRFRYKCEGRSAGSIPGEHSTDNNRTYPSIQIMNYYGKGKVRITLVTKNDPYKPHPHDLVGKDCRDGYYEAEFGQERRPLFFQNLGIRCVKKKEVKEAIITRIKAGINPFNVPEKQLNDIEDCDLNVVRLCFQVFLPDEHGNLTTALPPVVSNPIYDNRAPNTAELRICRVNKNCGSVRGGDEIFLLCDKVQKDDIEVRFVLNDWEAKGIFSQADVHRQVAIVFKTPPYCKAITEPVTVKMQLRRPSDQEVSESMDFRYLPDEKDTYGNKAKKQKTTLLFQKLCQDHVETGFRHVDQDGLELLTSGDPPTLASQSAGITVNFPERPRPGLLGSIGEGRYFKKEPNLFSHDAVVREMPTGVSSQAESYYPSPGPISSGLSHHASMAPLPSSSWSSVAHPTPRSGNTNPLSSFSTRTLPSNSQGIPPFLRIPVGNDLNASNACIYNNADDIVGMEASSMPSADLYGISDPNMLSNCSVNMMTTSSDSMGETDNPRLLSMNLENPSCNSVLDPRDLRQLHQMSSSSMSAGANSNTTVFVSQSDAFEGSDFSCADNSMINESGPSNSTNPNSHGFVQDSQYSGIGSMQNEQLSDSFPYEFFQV
Procedure: The THP-1 cell, Jurkat cell and RAW264.7 cell line were obtained from American Type Culture Collection (Manassas, Va.). The THP-1 Jurkat cells were cultured in RPMI 1640 (ATCC, Manassas, Va.), supplemented with 10% FCS (ATCC, Manassas, Va.), and 1% penicillin/Streptomycin (Gibco-BRL, New York, N.Y.). The RAW264.7 cells were cultured in DMEM (ATCC, Manassas, Va.) supplemented with 10% FCS (ATCC, Manassas, Va.), and 1% penicillin/Streptomycin (Gibco-BRL, New York, N.Y.). The cells were stimulated with human or murine recombinant IFNγ (100 ng/ml) for 10 h followed by LPS (1 μg/ml) or SAC (0.025%) CpG ([…]) in the presence or absence of Compound 50 at different concentrations for an additional incubation.
THP-1 cells were suspended in 20 volumes of buffer A containing 10 mM KCl, 10 mM HEPES (pH 7.9), 1 mM MgCl2, 1 mM dithiothreitol (DTT), 0.1% Nonidet p40 (NP-40), and 0.5 mM phenylmethylsulfonyl fluoride (PMSF) and homogenized and centrifuged at 10,000 rpm at 4C afor 5 min. Nuclear pellets were then suspended in buffer C containing 400 mM NaCl, 20 mM HEPES 9, pH 7.9), 15 mM MgCl2, 0.2 mM EDTA, 1 mM DTT, 25% glycerol, 1 mM PMSF, and 10 ug of leupeptin, 20 ug of pepstatin, and 10 ug/ml antipain, incubated for 30 min at 4C, and centrifuged at 14,000 rpm for 20 min. The supernatants were dialyzed against buffer D containing 100 mM NaCl, 20 mM HEPES (pH 7.9), 20% glycerol, 1 mM PMSF, and 1 mM DTT.
as §1, with “The membranes were washed and incubated with Horseradish Peroxidase-conjugated anti-rabbit IgG or anti-mouse IgG (Amersham, England) at a dilution of 1:2000 at room temperature for 1 h.” left out
Of the transcription factors that have been analyzed, two factors, ICSBP and c-Rel, seem to be affected by Compound 4/Compound 50 treatment. […]

`C(=N\Nc1nc(OCCc2ccccn2)nc(N2CCOCC2)n1)/c1c[nH]c2ccccc12` [Compound 4] was tested, and the “transcription factor ICSBP affected by treatment” value (ICSBP) was “affected” and the “transcription factor c-Rel affected by treatment” value (c-Rel) was “affected”.

— patent US20120021434A1, “METHOD FOR TREATING B CELL REGULATED AUTOIMMUNE DISORDERS” (Synta Pharmaceuticals Corp., priority 2005, published 2012)
